Converted amounts (≈) assume the structure as drawn.
Legend:
[1] = tested on: Euryhaliotrema perezponcei; parameters: method as in doi:10.1016/j.poly.2013.09.030, PMID 28917638; settings: in vitro and in vivo assays; cited from earlier work
[2] = Distribution coefficient LogD7.4, shake-flask 1-octanol/MOPS buffer; assay type: physicochemical; settings: 25 °C
Procedure: Solutions between 100 and 10 µM of the free ligands (cenz and onz) and the coordination compounds 3–10 were prepared in a MOPS buffer pH 7.4 as the aqueous phase and in 1-octanol as the organic phase. The absorption at 320 nm and 310 nm was determined for the aqueous and organic phase respectively by electronic spectroscopy (UV–Vis). Through a linear regression (concentration vs. absorption) the molar extinction coefficient of each compound in both phases was determined (Table 3). The lipophilicity was calculated in the 1-octanol/water system from the shake flask method using Eq. 1 [39]:1 […] where, Co is the final concentration in the organic phase and Cw is the final concentration in the aqueous phase (MOPS buffer at 10^–2 M pH 7.4). Both phases were presaturated with 50 µM solutions of the free ligands or 500 µM of each coordination compound and their UV spectrum was recorded. Both phases were combined and kept stirring for 3 h at 25 °C and in the absence of light. Subsequently, the mixture was centrifuged at 400g and the concentration in both phases was determined by UV–Vis spectroscopy using the Beer-Lambert law. The assays were performed in triplicate.
The T gondii parasite is an apicomplex organism; it requires a host cell to live, so it is important that the drugs used against the parasite have easy access to the cell. The lipophilicity of a compound is an important physicochemical property to determine its ability to permeate the biological membrane through passive diffusion; which usually is measured from the distribution coefficient logD7.4 = log(Co/Cw), in n-octanol/water. The shake-flask method was used to determine the LogD7.4 values from the molar extinction coefficients of the coordination compounds and the ligands in the two solvents (Table 3).

[3] = tested on: ct-DNA; assay: Competitive displacement of ethidium bromide from DNA (fluorescence); assay type: binding, calf; settings: EB 75 µM, [DNA]b = 30 µM, compound 0-50 µM, 1 h
Procedure: (§1) For the UV–Vis, fluorescence and circular dichroism assays the concentration of ct-DNA was determined on a Varian Cary 100 Scan spectrophotometer from the absorption at 260 nm and the corresponding molar absorptivity of 6600 M^−1 cm^−1 (nucleobase concentration). The stock solutions of the coordination compounds and the free ligands were prepared in cacodylate/NaCl buffer (1 mM cacodylic acid and 20 mM sodium chloride) at pH 7.25. The final samples contained a DMSO concentration of 0.2%.
(§2) Emission intensity of the dyes DNA-intercalator ethidium bromide, EB (λexc = 514 nm) and the minor-groove binder Hoechst 33,258 (λexc = 350 nm) was measured on iHR320 HORIBA JOBIN YVON spectrofluorometer. The samples contained 15 µM (in base pairs) of ct-DNA and 75 µM of EB […] in cacodylate/NaCl buffer. The respective dye was incubated for 30 min with ct-DNA to allow its binding to the biomolecule. Subsequently, increasing amounts of coordination compounds (0–50 µM) were added up to a final volume of 2 mL, and the samples were incubated for 1 h at 37 °C. The fluorescence spectra of all samples were recorded at room temperature. The affinity of the compounds for ct-DNA compared to EB was evaluated through the Stern–Volmer quenching constant Ksv, from Eq. 3:3 I0/I=1+Ksvcompound where I0 and I are the emission intensities in absence and the presence of the compound, respectively.
With the aim to corroborate the binding mode of the coordination compounds with DNA competitive displacement assays were carried out by florescence spectroscopy. The fluorescence of ethidium bromide (EB) increases when it intercalates between DNA base pairs, forming an EB-DNA adduct. Competitive binding assays will lead to a decrease of the fluorescence intensity (λexc = 514 nm; λem = 610 nm) if the interacting molecule is capable of displacing EB from the DNA helix. Solutions containing constant concentrations of DNA (30 µM) and EB (75 µM) were incubated for 30 min. Then the coordination compounds to be tested were added in a concentration in the range of 0–50 µM (corresponding to [complex]/[DNA] ratios between = 0 and 3.3), and fluorescence spectra were recorded after 1 h of incubation.

[4] = tested on: ct-DNA; assay: Competitive displacement of Hoechst 33258 from DNA (fluorescence); assay type: binding, calf; settings: Hoechst 33258 1.9 µM, [DNA]b = 30 µM, compound 0-50 µM, 1 h
Procedure: as §1, §2
Competitive binding assays were carried out with Hoechst 33,258. This dye binds to B-DNA, especially those with an AT-rich sequence giving a fluorescent signal at 458 nm when excited at 350 nm. As for to the EB assays, DNA (30 µM) was incubated for 30 min with Hoechst 33,258 (1.9 µM) and increasing amounts of the coordination compounds were subsequently added. In all cases, fluorescence quenching was observed (Fig. 9). As previously, the Ksv constants were determined (Fig. 9c and Table 4). The copper(II) compounds show Ksv values in the […] range (Table 4), indicating a groove binding behavior. For the zinc(II) compounds, the Ksv values are two orders of magnitude lower indicating weaker interactions, must likely of electrostatic nature.

[5] = tested on: ct-DNA; assay: Circular dichroism of ct-DNA; assay type: binding, calf; settings: [DNA]b = 50 µM, [complex]/[DNA] 0-2, 1 h 37 °C
Procedure: as §1
Circular dichroism (CD) spectra were recorded using a JASCO-815 spectropolarimeter, equipped with xenon-arc lamp of 450 W. The sample compartment was air-purged with N2 before use. For the measurements, a quartz cuvette with an optical path of 5 mm was used. A solution of 25 µM (in base pairs) of ct-DNA in cacodylate/NaCl buffer was incubated for 1 h at 37 °C with increasing amounts of coordination compounds (0–50 µM). The CD spectra were recorded at room temperature.
The interaction of small molecules with DNA can modify these CD signals depending on the type of binding. Intercalative interactions increase the intensity of the signals, as the result of an increase of the stability of the B conformation, whereas groove binding or covalent interactions tend to decrease the intensity of these signals, which are moreover displaced. The CD spectra for both ligands and their copper(II) and zinc(II) complexes were obtained at constant concentration of ct-DNA, increasing the complex concentration up to two equivalents ([complex]/[DNA] ratios of 0, 0.2, 0.4, 1, 2) with respect to the nucleobases concentration ([DNA]b = 50 µM).

[6] = tested on: pBR322 plasmid DNA; assay: Agarose gel electrophoresis, DNA cleavage; assay type: biochemical
Procedure: Electrophoresis assays were performed in 1.5% agarose gel and 1× TBE buffer using the DNA plasmid pBR322. The plasmid (15 µM base pairs) was incubated with 10 and 50 μM concentrations of the coordination compounds for 1 h at 37 °C in presence and absence of ascorbic acid (50 μM) as reducing agent and hydrogen peroxide (500 µM) as ROS generator in a final volume of 20 μL. The DNA-cleaving compound [Cu(phen)2(H2O)](NO3)2 was used as reference. The samples were loaded into the gel with 4 μL of a loading buffer (30% glycerol, 5 mM xylene cyanol), and electrophoresis was performed in 1× TBE at 100 V for 1 h in a Bio-Rad horizontal tank. Subsequently, the gel was stained with SYBR™ Safe overnight and images were acquired with a Gel Doc EZ Imager instrument (Bio-Rad).
Distinct forms of pBR322 plasmid DNA are commonly observed by gel electrophoresis due to the conformational changes that present distinct electrophoretic mobility: (1) supercoiled DNA (Form I) that migrates faster on the gel, (2) circular nicked (Form II), obtained from a one-strand scission, has a slower migration through the gel and (3) linear form (Form III) is generated when both strands are cleaved and migrates between forms I and II [54]. The interaction of the free ligands and their copper(II) and zinc(II) coordination compounds with pBR322 was investigated in presence of H2Asc (50 μM) as reducing agent and H2O2 (500 μM) as ROS generator. Solutions of 10 and 50 µM of the coordination compounds were incubated with the DNA at 37 °C for 1 h.

[7] = tested on: RH tachyzoites of Toxoplasma gondii; assay: Viability of extracellular tachyzoites, Sytox Green exclusion test; assay type: cell-based; settings: 1 h
Procedure: RH tachyzoites of Toxoplasma gondii were extracted in PBS solution at pH 7.4 from intraperitoneal fluid of infected CD1 mice on the third day of infection and centrifuged for ten minutes at 260g. Purified parasites were used within 4 h after their isolation.
The viability of the parasites was determined from staining with Sytox Green® fluorescent dye exclusion test. Purified tachyzoites (1 × 10^6) were incubated for one hour at room temperature with PBS solutions of the coordination compounds or the free ligands at concentrations of 40, 20, 10, 5, and 2.5 µM (0.1% DMSO), in a volume final of 1 mL. After the incubation time, the samples were centrifuged for 10 min at 250g, the medium was removed and 20 µL of Sytox Green® was added after 15 min of incubation for differentiate dead parasites in a Neubauer chamber. The assays were performed in triplicate. The half maximal inhibitory concentration (IC50) was calculated by Boltzmann regression analysis and expressed as mean ± standard error of three replicates. Based on the results the tachyzoites were incubated under the same conditions with the coordination compounds [Cu(onz)2Cl2] and [Cu(onz)2Br2] at their respective IC50 values, Sytox Green® was then added, and they were observed by fluorescence microscopy. Sulfadiazine was used as positive control.
Viability assays were performed against tachyzoites of Toxoplasma gondii. The RH strain was used to evaluate the effect of different concentrations (namely, 2.5, 5, 10, 20 and 40 µM) of the coordination compounds and the free 5-nitroimidazole against the tachyzoites. The evaluation were performed in PBS buffer (pH 7.4) with Sytox Green® exclusion test, which allows differentiating dead from live tachyzoites, since the intact cell membrane of alive ones is not stained.

[8] = tested on: Entamoeba histolytica; settings: cited from earlier work
[9] = intraperitoneal injection; cited from earlier work
[10] = compound 10 (mM in the source), + H2Asc
[11] = compound 10 (mM in the source), + H2O2
[12] = compound 10 (mM in the source), no additive
[13] = compound 50 (mM in the source), + H2Asc
[14] = compound 50 (mM in the source), + H2Asc + H2O2
[15] = compound 50 (mM in the source), + H2O2
[16] = compound 50 (mM in the source), no additive

SMILES: CCS(=O)(=O)CCn1c([N+](=O)[O-])cnc1C.CCS(=O)(=O)CCn1c([N+](=O)[O-])cnc1C.[Br][Cu][Br] [[Cu(tnz)2Br2]]
- parasite mortality percentage [1]: 100%

SMILES: Cc1n(CC(O)CCl)c([N+](=O)[O-])c[n+]1[Zn-2]([Br])([Br])[n+]1cc([N+](=O)[O-])n(CC(O)CCl)c1C (centres unmarked) [[Zn(onz)2Br2]]
- LogD7.4 ([2]; octanol/water (MOPS buffer 10^–2 M), 3 h): 0.95
- Ethidium bromide Ksv [3]: 2600 M⁻¹
- Hoechst 33258 Ksv [4]: 48000 M⁻¹
- effect on CD spectrum of ct-DNA (bands at 275 and 245 nm) [5]: spectra changes are minor
- %Damage [6, 10]: 87.3%
- %Nicked [6, 10]: 81.80%
- %Supercoiled [6, 10]: 12.70%
- %Damage ([6]; compound 10 (mM in the source), + H2Asc + H2O2): 100.00%
- %Damage [6, 11]: 14.30%
- %Nicked [6, 11]: 4.70%
- %Supercoiled [6, 11]: 85.70%
- %Damage [6, 12]: 3.5%
- %Nicked [6, 12]: 2.60%
- %Supercoiled [6, 12]: 96.50%
- %Damage [6, 13]: 98.2%
- %Nicked [6, 13]: 98.80%
- %Supercoiled [6, 13]: 1.80%
- %Damage [6, 14]: 100.00%
- %Damage [6, 15]: 44.80%
- %Nicked [6, 15]: 29.10%
- %Supercoiled [6, 15]: 55.20%
- %Damage [6, 16]: 11.9%
- %Nicked [6, 16]: 0.40%
- %Supercoiled [6, 16]: 88.10%

SMILES: Cc1ncc([N+](=O)[O-])n1CC(O)CCl (centres unmarked) [onz, 1-(3-chloro-2-hydroxypropyl)-2-methyl-5-nitroimidazole, reference compound]
- activity against T. gondii ([7]; 2.5-40 µM, PBS): did not show activity
- logD at 3 h ([2]; 1-octanol/MOPS buffer, pH 7.4, octanol/water (MOPS buffer 10^–2 M)): 0.64
- effect on CD spectrum of ct-DNA (bands at 275 and 245 nm) [5]: did not affect the DNA structure
- %Damage [6, 13]: 11.80%
- %Nicked [6, 13]: 5.60%
- %Supercoiled [6, 13]: 88.20%
- %Damage [6, 14]: 8.80%
- %Nicked [6, 14]: 4.30%
- %Supercoiled [6, 14]: 91.20%
- %Damage [6, 15]: 10.70%
- %Nicked [6, 15]: 8.90%
- %Supercoiled [6, 15]: 89.30%
- %Damage [6, 16]: 9.80%
- %Nicked [6, 16]: 7.60%
- %Supercoiled [6, 16]: 90.20%
- DNA cleavage (in words) ([6]; with and without H2Asc / H2O2): did not provoke any significant DNA cleavage
- MIC [8]: 12.5 µM (≈ 2.75 µg/mL)

SMILES: Nc1ccc(S(=O)(=O)Nc2ncccn2)cc1 [sulfadiazine, reference compound]
- IC50 ([7]; Toxoplasma gondii, PBS pH 7.4, mean ± standard error of three replicates, read-out: IC50): > 1600 µM
- LD50 [9]: 180 mg/kg
